Experimental data reported in US5942631A, “Inhibitors of cholesterol esterase” (University Of New Mexico, priority 1998, dated 1999).

Target: T1, cholesterol esterase (CE) (Homo sapiens, UniProt P19835)
T1 sequence (P19835 21-753): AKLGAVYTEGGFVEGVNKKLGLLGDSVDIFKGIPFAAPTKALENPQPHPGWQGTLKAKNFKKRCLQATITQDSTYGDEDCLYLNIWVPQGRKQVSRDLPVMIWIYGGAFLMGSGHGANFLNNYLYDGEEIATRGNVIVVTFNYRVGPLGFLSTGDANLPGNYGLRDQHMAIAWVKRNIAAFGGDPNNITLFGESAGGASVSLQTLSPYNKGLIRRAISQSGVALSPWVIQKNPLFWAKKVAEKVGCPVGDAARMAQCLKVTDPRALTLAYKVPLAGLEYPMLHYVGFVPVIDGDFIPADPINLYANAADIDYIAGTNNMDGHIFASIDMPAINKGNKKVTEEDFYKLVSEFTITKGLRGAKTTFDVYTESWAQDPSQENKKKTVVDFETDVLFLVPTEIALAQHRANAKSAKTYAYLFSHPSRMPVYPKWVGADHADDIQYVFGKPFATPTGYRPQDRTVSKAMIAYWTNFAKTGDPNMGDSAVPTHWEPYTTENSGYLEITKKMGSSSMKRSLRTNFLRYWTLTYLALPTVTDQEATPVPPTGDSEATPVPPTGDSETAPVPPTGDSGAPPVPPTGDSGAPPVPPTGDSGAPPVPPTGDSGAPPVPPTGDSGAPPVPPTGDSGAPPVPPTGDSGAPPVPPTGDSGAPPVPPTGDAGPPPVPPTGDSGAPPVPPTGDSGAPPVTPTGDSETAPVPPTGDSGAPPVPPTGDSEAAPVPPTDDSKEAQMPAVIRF
Assay: Kinetic inhibition studies of cholesterol esterase (CE), substrate p-nitrophenylbutyrate, Dixon plots
Format: biochemical
Conditions: for inhibition of CE: kinetic inhibition studies, result in words

Row | SMILES | inhibition of CE | mode of inhibition of CE (1/V v [I] plots intersect above the x-axis, FIG. 6) | Ki (printed as "<<30", inferred because calculated Ki equals [E]/2, read-out: actual Ki for CE (suggested)) [µM]
1 | O=c1oc(Cl)ccc1CC1CCCCC1 [Example 2] | potent inhibitors of CE |  | 
2 | O=c1oc(Cl)ccc1CCC1CCCCC1 [Example 3, 3-(2-cyclohexylethyl)-6-chloropyronle] | potent inhibitors of CE | competitive inhibition | < 0.03
3 | O=c1oc(Cl)ccc1CCCC1CCCCC1 [Example 4] | potent inhibitors of CE |  | 
